Results as given in ChEMBL document CHEMBL1909294, “Translating clinical findings into knowledge in drug safety evaluation--drug induced liver injury prediction system (DILIps)” (PLoS Comput Biol, 2011).

Key:
Hepatotoxicity [1] = test system: Hepatotoxicity;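 as to HepSE cholecystitis: Cholecystitis-related hepatic side effect score drawn from the DILIps (drug-induced liver injury prediction) training data set; call rule not given here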;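 as to HepSE cholelithiasis: hepatic side effect score for cholelithiasis, drawn from the DILIps training data for predicting drug-induced liver injury; call rule not given here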;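 as to HepSE cirrhosis: cirrhosis hepatic side effect score taken from the DILIps (drug-induced liver injury prediction) training set; call rule not given here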;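 as to HepSE elevated liver function tests: hepatic side effect score for raised liver function tests, as recorded in the DILIps training set used for predicting drug-induced liver injury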;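 as to HepSE hepatic necrosis: score of hepatic side effects for hepatic necrosis, drawn from the training data of DILIps, a prediction system for drug-induced liver injury; call rule not given here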;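 as to HepSE jaundice: Jaundice-related hepatic side-effect score drawn from the training data of the DILIps (drug-induced liver injury prediction system); call rule not given here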; as to HepSE liver disease: call rule not given here
Hepatotoxicity [2] = test system: Hepatotoxicity; remark: listed apart in the source;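 as to HepSE cholecystitis: Cholecystitis-related hepatic side effect score drawn from the DILIps (drug-induced liver injury prediction) training data set; call rule not given here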;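 as to HepSE cholelithiasis: hepatic side effect score for cholelithiasis, drawn from the DILIps training data for predicting drug-induced liver injury; call rule not given here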;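 as to HepSE cirrhosis: cirrhosis hepatic side effect score taken from the DILIps (drug-induced liver injury prediction) training set; call rule not given here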;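 as to HepSE elevated liver function tests: hepatic side effect score for raised liver function tests, as recorded in the DILIps training set used for predicting drug-induced liver injury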;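 as to HepSE jaundice: Jaundice-related hepatic side-effect score drawn from the training data of the DILIps (drug-induced liver injury prediction system); call rule not given here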; as to HepSE liver disease: call rule not given here
Hepatotoxicity [3] = test system: Hepatotoxicity; remark: listed apart in the source;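 as to HepSE cholecystitis: Cholecystitis-related hepatic side effect score drawn from the DILIps (drug-induced liver injury prediction) training data set; call rule not given here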;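 as to HepSE cholelithiasis: hepatic side effect score for cholelithiasis, drawn from the DILIps training data for predicting drug-induced liver injury; call rule not given here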;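 as to HepSE cirrhosis: cirrhosis hepatic side effect score taken from the DILIps (drug-induced liver injury prediction) training set; call rule not given here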;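 as to HepSE elevated liver function tests: hepatic side effect score for raised liver function tests, as recorded in the DILIps training set used for predicting drug-induced liver injury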;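 as to HepSE jaundice: Jaundice-related hepatic side-effect score drawn from the training data of the DILIps (drug-induced liver injury prediction system); call rule not given here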; as to HepSE liver disease: call rule not given here
Hepatotoxicity [4] = test system: Hepatotoxicity; remark: listed apart in the source;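 as to HepSE cholecystitis: Cholecystitis-related hepatic side effect score drawn from the DILIps (drug-induced liver injury prediction) training data set; call rule not given here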;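 as to HepSE cholelithiasis: hepatic side effect score for cholelithiasis, drawn from the DILIps training data for predicting drug-induced liver injury; call rule not given here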;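 as to HepSE cirrhosis: cirrhosis hepatic side effect score taken from the DILIps (drug-induced liver injury prediction) training set; call rule not given here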;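 as to HepSE elevated liver function tests: hepatic side effect score for raised liver function tests, as recorded in the DILIps training set used for predicting drug-induced liver injury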;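 as to HepSE jaundice: Jaundice-related hepatic side-effect score drawn from the training data of the DILIps (drug-induced liver injury prediction system); call rule not given here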; as to HepSE liver disease: call rule not given here
Hepatotoxicity [5] = test system: Hepatotoxicity; remark: listed apart in the source; as to HepSE liver disease: call rule not given here
Hepatotoxicity [6] = test system: Hepatotoxicity; remark: listed apart in the source; as to HepSE liver disease: call rule not given here
Hepatotoxicity [7] = test system: Hepatotoxicity; remark: listed apart in the source
Hepatotoxicity [8] = test system: Hepatotoxicity; remark: listed apart in the source
Hepatotoxicity [9] = test system: Hepatotoxicity; remark: listed apart in the source
Hepatotoxicity [10] = test system: Hepatotoxicity; remark: listed apart in the source
Hepatotoxicity [11] = test system: Hepatotoxicity; remark: listed apart in the source
Hepatotoxicity [12] = test system: Hepatotoxicity; remark: listed apart in the source
Hepatotoxicity [13] = test system: Hepatotoxicity; remark: listed apart in the source
Hepatotoxicity [14] = test system: Hepatotoxicity; remark: listed apart in the source

SMILES	HepSE_jaundice (Hepatotoxicity [1])	HepSE_cholecystitis (Hepatotoxicity [2])	HepSE_liver disease (Hepatotoxicity [3])	HepSE_cirrhosis (Hepatotoxicity [4])	HepSE_elevated liver function tests (Hepatotoxicity [5])	HepSE_cholelithiasis (Hepatotoxicity [6])	HepSE_liver fatty (Hepatotoxicity [7])	HepSE_hepatic necrosis (Hepatotoxicity [8])	HepSE_liver function tests abnormal (Hepatotoxicity [9])	HepSE_hepatomegaly (Hepatotoxicity [10])	HepSE_Combined Scores (Hepatotoxicity [11])	HepSE_bilirubinemia (Hepatotoxicity [12])	HepSE_hepatic failure (Hepatotoxicity [13])	HepSE_hepatitis (Hepatotoxicity [14])	other results
CCCCCNC(=N)N/N=C/c1c[nH]c2ccc(OC)cc12 [TEGASEROD]	0	1	0	0	0	1	0	0	0	0	4	1	0	1	–
CC[C@H]1OC(=O)[C@H](C)C(=O)[C@H](C)[C@@H](O[C@@H]2O[C@H](C)C[C@H](N(C)C)[C@H]2O)[C@](C)(OC)C[C@@H](C)C(=O)[C@H](C)[C@H]2N(CCCCn3cnc(-c4cccnc4)c3)C(=O)O[C@]12C [TELITHROMYCIN]	–	–	–	–	–	–	–	–	–	–	–	–	–	–	HepSE_jaundice (Hepatotoxicity [1]; Liver): 1; HepSE_cholecystitis (Hepatotoxicity [2]; Liver): 0; HepSE_liver disease (Hepatotoxicity [3]; Liver): 0; HepSE_cirrhosis (Hepatotoxicity [4]; Liver): 0; HepSE_elevated liver function tests (Hepatotoxicity [5]; Liver): 0; HepSE_cholelithiasis (Hepatotoxicity [6]; Liver): 0; HepSE_liver fatty (Hepatotoxicity [7]; Liver): 0; HepSE_hepatic necrosis (Hepatotoxicity [8]; Liver): 1; HepSE_liver function tests abnormal (Hepatotoxicity [9]; Liver): 1; HepSE_hepatomegaly (Hepatotoxicity [10]; Liver): 0; HepSE_Combined Scores (Hepatotoxicity [11]; Liver): 5; HepSE_bilirubinemia (Hepatotoxicity [12]; Liver): 0; HepSE_hepatic failure (Hepatotoxicity [13]; Liver): 1; HepSE_hepatitis (Hepatotoxicity [14]; Liver): 1
Cn1nnc2c(C(N)=O)ncn2c1=O [TEMOZOLOMIDE]	0	0	0	0	0	0	0	0	0	0	0	0	0	0	–
COc1cc([C@@H]2c3cc4c(cc3[C@@H](O[C@@H]3O[C@@H]5CO[C@@H](c6cccs6)O[C@H]5[C@H](O)[C@H]3O)[C@H]3COC(=O)[C@H]23)OCO4)cc(OC)c1O [TENIPOSIDE]	0	0	0	0	0	0	0	0	0	0	0	0	0	0	–
C[C@H](Cn1cnc2c(N)ncnc21)OCP(=O)(O)O [TENOFOVIR ANHYDROUS]	0	0	0	0	0	0	1	0	0	0	2	0	0	1	–
COc1cc2nc(N3CCN(C(=O)C4CCCO4)CC3)nc(N)c2cc1OC (configuration not stated) [TERAZOSIN]	1	0	0	0	0	0	0	0	0	0	1	0	0	0	–
CN(C/C=C/C#CC(C)(C)C)Cc1cccc2ccccc12 [TERBINAFINE]	1	0	1	0	0	0	0	0	0	0	3	0	1	0	–
CC(C)(C)NCC(O)c1cc(O)cc(O)c1 (configuration not stated) [TERBUTALINE]	0	0	0	0	0	0	0	0	0	0	0	0	0	0	–
CC(C)N1CCN(c2ccc(OCC3COC(Cn4cncn4)(c4ccc(Cl)cc4Cl)O3)cc2)CC1 (configuration not stated) [TERCONAZOLE]	0	0	0	0	0	0	0	0	0	0	0	0	0	0	–
C[C@]12CC[C@H]3[C@@H](CCC4=CC(=O)CC[C@@]43C)[C@@H]1CC[C@@H]2O [TESTOSTERONE]	1	0	0	0	0	0	0	0	1	0	2	0	0	0	–
CN(C)[C@@H]1C(O)=C(C(N)=O)C(=O)[C@@]2(O)C(O)=C3C(=O)c4c(O)cccc4[C@@](C)(O)[C@H]3C[C@@H]12 [TETRACYCLINE]	0	0	0	0	0	0	0	0	0	0	1	0	1	0	–
c1ccc2c(c1)CCCC2C1=NCCN1 (configuration not stated) [TETRAHYDROZOLINE]	0	0	0	0	0	0	0	0	0	0	0	0	0	0	–
O=C1CCC(N2C(=O)c3ccccc3C2=O)C(=O)N1 (configuration not stated) [THALIDOMIDE]	1	0	0	0	0	0	0	0	0	1	4	1	0	1	–
